The source of these data is publication PMC7483469, “The overexpression of OsACBP5 protects transgenic rice against necrotrophic, hemibiotrophic and biotrophic pathogens” (Scientific Reports, 2020).

The experiment deals with T1, (His)6-OsACBP5; rOsACBP5 (Oryza sativa, UniProt Q10P83).
T1 construct: gene ACBP5; N-terminal (His)6-tag, plasmid pOS543 (from pRSETA), E. coli BL21(DE3) Star pLysS, soluble fraction, HisTrap
T1 sequence (Q10P83 32-569): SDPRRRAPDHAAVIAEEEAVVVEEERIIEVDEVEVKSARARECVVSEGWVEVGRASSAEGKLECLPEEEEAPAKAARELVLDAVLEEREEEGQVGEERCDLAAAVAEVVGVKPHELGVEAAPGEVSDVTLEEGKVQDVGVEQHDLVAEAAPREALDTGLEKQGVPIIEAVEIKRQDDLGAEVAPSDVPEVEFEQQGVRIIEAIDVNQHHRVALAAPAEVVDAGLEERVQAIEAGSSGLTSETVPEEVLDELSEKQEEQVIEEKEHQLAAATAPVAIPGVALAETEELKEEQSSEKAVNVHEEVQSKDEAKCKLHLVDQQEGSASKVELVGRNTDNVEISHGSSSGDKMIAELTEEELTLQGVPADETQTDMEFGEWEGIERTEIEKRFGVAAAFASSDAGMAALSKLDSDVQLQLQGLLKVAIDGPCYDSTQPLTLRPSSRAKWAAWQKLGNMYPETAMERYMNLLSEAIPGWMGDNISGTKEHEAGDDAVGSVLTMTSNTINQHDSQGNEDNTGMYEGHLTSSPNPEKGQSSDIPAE
In words: isothermal titration calorimetry. It is filed as binding. A general note: ITC needs no label: the signal is the heat of the interaction.

Broadly, the Kd is a measure of binding affinity in units of concentration. Low readings indicate higher affinity, high ones lower affinity. With `CC/C=C\C/C=C\C/C=C\CCCCCCCC(=O)SCCNC(=O)CCNC(=O)[C@H](O)C(C)(C)COP(=O)(O)OP(=O)(O)OC[C@H]1O[C@@H](n2cnc3c(N)ncnc32)[C@H](O)[C@@H]1OP(=O)(O)O` [18:3-acyl-CoA ester], the dissociation constant (Kd) stood at 59.5 nM.
